This is an account of results in ChEMBL document CHEMBL1150671, “Online analysis of xestodecalactones A-C, novel bioactive metabolites from the fungus Penicillium cf. montanense and their subsequent isolation from the sponge Xestospongia exigua” (2002).

One experiment concerns Bacillus subtilis. Briefly: Antibacterial activity against Bacillus subtilis 168. The format is functional, organism-based. As to conditions: subsp. subtilis str. 168.
In experiment [1] the test system is Candida albicans. The experiment is described as follows: Antifungal activity against Candida albicans at 100 umol by agar diffusion assay. The format is functional. On the technique in general: Agar diffusion results depend on both activity and mobility in agar.
Experiment [2] relates to Escherichia coli. Briefly: Antibacterial activity against Escherichia coli HB 101. The format is functional, organism-based.
The next experiment relates to Staphylococcus aureus. Briefly: Antibacterial activity against Staphylococcus aureus ATCC 25923. The format is functional, organism-based.
Experiment [3] relates to Candida albicans. Briefly: Antifungal activity against Candida albicans at 20 umol by agar diffusion assay. The format is functional.
Experiment [4] relates to Escherichia coli. The experiment is described as follows: Antibacterial activity against Escherichia coli ATCC 25922. The format is functional, organism-based.
Experiment [5] deals with Candida albicans. The experiment is described as follows: Antifungal activity against Candida albicans at 50 umol by agar diffusion assay. The format is functional.

Activity calls are given as the source filed them. No cut-off for these calls is given here.

Consider `C[C@@H]1C[C@H](O)CC(=O)c2c(O)cc(O)cc2CC(=O)O1` [XESTODECALACTONE B], for which the outcome with Bacillus subtilis, in the experiment with Escherichia coli [2], with Staphylococcus aureus and in the experiment on Escherichia coli [4] was inactive. The “inhibition zone (IZ)” value turned out to be 25 mm with Candida albicans [1], 7 mm in the experiment with Candida albicans [3] and 12 mm in the experiment on Candida albicans [5].

Turning to `C[C@H]1CCCCCC(=O)c2c(O)cc(O)cc2CC(=O)O1`, the result with Bacillus subtilis, in the experiment on Escherichia coli [2], in the experiment on Staphylococcus aureus and in the experiment with Escherichia coli [4] was inactive.

For `CC1C/C=C/C(=O)c2c(O)cc(O)cc2CC(=O)O1` (centres undefined), the result in the experiment with Bacillus subtilis, in the experiment with Escherichia coli [2], in the experiment on Staphylococcus aureus and in the experiment on Escherichia coli [4] was inactive.

Turning to `C[C@@H]1CCCC(=O)c2c(O)cc(O)cc2CC(=O)O1`, the outcome in the experiment with Bacillus subtilis, in the experiment on Escherichia coli [2], in the experiment with Staphylococcus aureus and in the experiment with Escherichia coli [4] was inactive.

Regarding `C[C@H]1CCC[C@H](O)CC(=O)c2c(O)cc(O)cc2CC(=O)O1`, the result with Bacillus subtilis, with Escherichia coli [2], in the experiment with Staphylococcus aureus and in the experiment on Escherichia coli [4] was inactive.

On to `C[C@@H]1C[C@H](O)CCCC(=O)CC(=O)O1`, for which the result with Bacillus subtilis, in the experiment on Escherichia coli [2], with Staphylococcus aureus and with Escherichia coli [4] was inactive.

In the case of `C[C@H]1C[C@H](O)CC(=O)c2c(O)cc(O)cc2CC(=O)O1`, the outcome with Bacillus subtilis, with Escherichia coli [2], in the experiment with Staphylococcus aureus and in the experiment with Escherichia coli [4] was inactive.

Consider `C[C@@H]1CCCC(=O)C[C@@H](O)CC(=O)O1`, for which the outcome in the experiment with Bacillus subtilis, with Escherichia coli [2], in the experiment with Staphylococcus aureus and in the experiment with Escherichia coli [4] was inactive.

`C[C@H]1CCC[C@@H](O)CC(=O)c2c(O)cc(O)cc2CC(=O)O1`: the result in the experiment with Bacillus subtilis, with Escherichia coli [2], in the experiment on Staphylococcus aureus and in the experiment on Escherichia coli [4] was inactive.
